# Reference: patent publication US9145372B2, “Pyridazine derivatives, compositions and methods for treating cognitive impairment” (AGENEBIO, INC., priority 2010, dated 2015)
# Columns and labels:
# [1] = test system: aged-impaired (AI) rats; assay: Radial Arm Maze (RAM) behavioral task, spatial memory retention; type: in vivo, rat; conditions: 3 mg/kg i.p., two-hour delay RAM
# Method: The effects of methyl 3,5-diphenylpyridazine-4-carboxylate on the in vivo spatial memory retention of aged-impaired (AI) rats were assessed in a Radial Arm Maze (RAM) behavioral task using vehicle control and four different dosage levels of methyl 3,5-diphenylpyridazine-4-carboxylate (0.1 mg/kg, 0.3 mg/kg, 1 mg/kg and 3 mg/kg, ip). RAM behavioral tasks were performed on eight AI rats. All five treatment conditions (vehicle and four dosage levels) were tested on all eight rats.
# The RAM apparatus used consisted of eight equidistantly-spaced arms. An elevated maze arm (7 cm width×75 cm length) projected from each facet of an octagonal center platform (30 cm diameter, 51.5 cm height). Clear side walls on the arms were 10 cm high and were angled at 65° to form a trough. A food well (4 cm diameter, 2 cm deep) was located at the distal end of each arm. Froot Loops™ (Kellogg Company) were used as rewards. Blocks constructed of Plexiglas™ (30 cm height×12 cm width) could be positioned to prevent entry to any arm. Numerous extra maze cues surrounding the apparatus were also provided.
# The AI rats were initially subjected to a pre-training test (Chappell et al. Neuropharmacology 37: 481-487, 1998). The pre-training test consisted of a habituation phase (4 days), a training phase on the standard win-shift task (18 days) and another training phase (14 days) in which a brief delay was imposed between presentation of a subset of arms designated by the experimenter (e.g., 5 arms available and 3 arms blocked) and completion of the eight-arm win-shift task (i.e., with all eight arms available).
# In the habituation phase, rats were familiarized to the maze for an 8-minute session on four consecutive days. In each of these sessions, food rewards were scattered on the RAM, initially on the center platform and arms and then progressively confined to the arms. After this habituation phase, a standard training protocol was used, in which a food pellet was located at the end of each arm. Rats received one trial each day for 18 days. Each daily trial terminated when all eight food pellets had been obtained or when either 16 choices were made or 15 minutes had elapsed. After completion of this training phase, a second training phase was carried out in which the memory demand was increased by imposing a brief delay during the trial. At the beginning of each trial, three arms of the eight-arm maze were blocked. Rats were allowed to obtain food on the five arms to which access was permitted during this initial “information phase” of the trial. Rats were then removed from the maze for 60 seconds, during which time the barriers on the maze were removed, thus allowing access to all eight arms. […]
# [2] = target: T1, α5-containing GABAA R (Homo sapiens, UniProt P18507+P31644); conditions: at GABA EC20; van Niel et al.; cited from earlier work
# T1 sequence (P31644 32-462): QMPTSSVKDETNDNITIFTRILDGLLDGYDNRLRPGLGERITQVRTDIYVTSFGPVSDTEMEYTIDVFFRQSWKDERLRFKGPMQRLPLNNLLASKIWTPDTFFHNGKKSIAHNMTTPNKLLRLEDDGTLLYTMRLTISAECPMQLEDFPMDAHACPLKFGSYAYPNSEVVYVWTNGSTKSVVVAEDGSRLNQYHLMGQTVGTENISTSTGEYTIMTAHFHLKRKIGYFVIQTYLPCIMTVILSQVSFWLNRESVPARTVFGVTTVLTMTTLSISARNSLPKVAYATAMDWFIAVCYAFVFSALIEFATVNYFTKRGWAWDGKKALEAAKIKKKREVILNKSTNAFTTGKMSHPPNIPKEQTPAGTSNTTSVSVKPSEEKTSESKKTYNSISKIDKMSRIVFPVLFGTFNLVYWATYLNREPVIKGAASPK
# T1 sequence (P28472 26-473 partner): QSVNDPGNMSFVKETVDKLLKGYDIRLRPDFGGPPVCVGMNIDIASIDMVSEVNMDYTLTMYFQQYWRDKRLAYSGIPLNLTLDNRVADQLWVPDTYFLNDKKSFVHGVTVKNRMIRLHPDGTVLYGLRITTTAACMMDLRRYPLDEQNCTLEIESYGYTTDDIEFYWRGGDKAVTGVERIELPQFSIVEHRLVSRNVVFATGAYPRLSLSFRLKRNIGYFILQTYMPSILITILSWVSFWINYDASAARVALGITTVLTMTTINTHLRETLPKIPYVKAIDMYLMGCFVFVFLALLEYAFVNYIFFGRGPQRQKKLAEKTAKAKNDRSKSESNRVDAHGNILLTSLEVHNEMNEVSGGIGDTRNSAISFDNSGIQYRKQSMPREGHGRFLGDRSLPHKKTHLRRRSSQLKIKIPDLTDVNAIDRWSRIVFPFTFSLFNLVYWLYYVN
# T1 sequence (P18507 40-467 limits assumed): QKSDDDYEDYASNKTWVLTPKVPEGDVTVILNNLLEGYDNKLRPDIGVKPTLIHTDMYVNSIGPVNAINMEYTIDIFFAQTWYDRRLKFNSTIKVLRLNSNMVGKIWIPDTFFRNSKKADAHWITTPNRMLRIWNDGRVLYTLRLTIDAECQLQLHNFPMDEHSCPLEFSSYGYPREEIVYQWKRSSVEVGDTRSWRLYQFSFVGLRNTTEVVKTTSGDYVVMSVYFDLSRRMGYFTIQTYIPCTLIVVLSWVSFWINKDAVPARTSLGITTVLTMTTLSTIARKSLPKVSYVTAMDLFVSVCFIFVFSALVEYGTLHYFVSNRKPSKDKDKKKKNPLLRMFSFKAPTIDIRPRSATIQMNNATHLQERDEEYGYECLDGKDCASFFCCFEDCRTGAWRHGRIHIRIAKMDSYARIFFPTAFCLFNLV
structure (smiles),measurement,setting,value
"COC(=O)c1c(-c2ccccc2)cnnc1-c1ccccc1 [methyl 3,5-diphenylpyridazine-4-carboxylate]",average no. of errors ± SEM in retention test,[1],1.31±0.40
same,memory performance relative to vehicle control,[1],significantly improved memory performance
same,α5 in vitro efficacy (EC20),[2],+27
